One data set addresses T1, HDAC8 (Homo sapiens, UniProt Q9BY41).
T1 construct: one additional N-terminal residue 'H' (His) (N)
T1 sequence (Q9BY41 1-377): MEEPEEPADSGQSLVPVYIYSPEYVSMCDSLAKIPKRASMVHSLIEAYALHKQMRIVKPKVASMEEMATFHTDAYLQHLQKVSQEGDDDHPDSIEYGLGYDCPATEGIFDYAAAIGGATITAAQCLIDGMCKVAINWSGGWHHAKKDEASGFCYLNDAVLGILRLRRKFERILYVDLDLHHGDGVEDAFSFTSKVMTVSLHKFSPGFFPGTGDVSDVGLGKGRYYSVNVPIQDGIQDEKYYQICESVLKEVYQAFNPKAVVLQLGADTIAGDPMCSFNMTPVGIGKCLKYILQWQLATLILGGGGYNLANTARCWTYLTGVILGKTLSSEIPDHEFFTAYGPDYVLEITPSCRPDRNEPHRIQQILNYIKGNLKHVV
The data set can be described thus: Kinetic parameters of inactivation from time-dependent IC50. It is filed as biochemical. As to conditions: HDAC8, inactivation constant. Here is the method: Time-dependent IC50 values were obtained using the previously described enzyme activity assay after varying preincubation times.
As to `C#Cc1ccc[n+](C)c1` [B6+], the Ki came out at 800 nM.

The target in a further data set is HDAC8 WT (Homo sapiens, UniProt Q9BY41). The data set can be described thus: Dilution/dialysis reversibility experiment. It is filed as biochemical. As to conditions: 2000-fold dilution by overnight dialysis.
As to `C#Cc1ccc[n+](C)c1` [B6+], the “reversibility of covalent binding” value was “irreversible”.

For a further data set, the system named is THP-1 cells. The data set can be described thus: CellTiter-Blue cell viability assay. Format: cell-based. As to conditions: Homo sapiens, 72 h, Figure 7A, read-out: cell viability IC50, THP-1. As to the method:
All cell lines were purchased from DSMZ (Braunschweig, Germany). The cell lines were regularly tested to exclude mycoplasma contamination and authenticated. […] Media were supplemented with 10% fetal calf serum (FCS), 10 units/mL penicillin, 10 μg/mL streptomycin, and 2 mM L-glutamine (all Gibco, Thermo Fisher Scientific).
To determine the IC50 of the selected compounds on the cell lines, the CellTiter-Blue cell viability assay (Promega) was performed. For this, cells were seeded in 96-well flat-bottom plates at a cell density of 10 000 cells/well. Cells were treated in triplicate with the compound of interest at various concentrations or with 10 μM Bortezomib (S1013; Selleck Chemicals, Houston, TX), as a positive control. […] Plates were measured using a GloMax plate reader (Promega), and IC50 values were determined by nonlinear regression using GraphPad Prism version 9.1.1 (GraphPad Software, Inc.), and the data are reported as mean values ± the standard error of the mean.
Take `C#Cc1cnccc1NC(=O)CC(=O)N1Cc2ccccc2C1` [compound 11, N-(3-Ethynylpyridin-4-yl)-3-(isoindolin-2-yl)-3-oxopropanamide]: the half-maximal inhibitory concentration (IC50) was more than 500 µM.

For a further data set, the system named is HL60 cells. Put plainly: CellTiter-Blue cell viability assay. It is filed as cell-based. As to conditions: Homo sapiens, HL-60; 72 h, Figure 7A. Here is the method: All cell lines were purchased from DSMZ (Braunschweig, Germany). The cell lines were regularly tested to exclude mycoplasma contamination and authenticated. Cell lines were grown at 37 °C and 5% CO2 in RPMI 1640 medium (Gibco, Thermo Fisher Scientific). Media were supplemented with 10% fetal calf serum (FCS), 10 units/mL penicillin, 10 μg/mL streptomycin, and 2 mM L-glutamine (all Gibco, Thermo Fisher Scientific).
To determine the IC50 of the selected compounds on the cell lines, the CellTiter-Blue cell viability assay (Promega) was performed. For this, cells were seeded in 96-well flat-bottom plates at a cell density of 10 000 cells/well. Cells were treated in triplicate with the compound of interest at various concentrations or with 10 μM Bortezomib (S1013; Selleck Chemicals, Houston, TX), as a positive control. The cell viability of treated cell lines was measured using CellTiter-Blue after incubation for 72 h. Plates were measured using a GloMax plate reader (Promega), and IC50 values were determined by nonlinear regression using GraphPad Prism version 9.1.1 (GraphPad Software, Inc.), and the data are reported as mean values ± the standard error of the mean.
Turning to `C#Cc1cnccc1NC(=O)CC(=O)N1Cc2ccccc2C1` [compound 11, N-(3-Ethynylpyridin-4-yl)-3-(isoindolin-2-yl)-3-oxopropanamide], the IC50 is more than 500 µM.

The test system of a further data set is SMC3 acetylation. The data set can be described thus: Western blot (immunoblot) in OCI-AML3 cells. Format: cell-based. As to conditions: 72 h treatment. As to the method:
Cells (2 ×10^6) were seeded in 2 mL of medium in a six-well plate (Greiner) and treated with the desired concentration of the compounds. […] Protein concentrations were determined by the Bradford protein assay. Thirty micrograms of cell lysates per treatment was fractionated on sodium dodecyl sulfate–polyacrylamide gels and transferred to nitrocellulose membranes (Cytiva).
With `C#Cc1ccc[n+](C)c1` [B6+], the “effect on HDAC8 levels” value was “not influencing HDAC8 levels”.

The test system of a further data set is GSH (glutathione). The data set can be described thus: physchem. As to conditions: PBS buffer with 5 mM glutathione (GSH), pH 7.4.
Description: The AUC (area under the curve) values were determined via integration of HPLC or MS chromatograms and then corrected with the internal standard. The fragments’ AUC values were subjected to ordinary least-squares (OLS) linear regression, and to compute the important parameters (kinetic rate constant and half-life time), an Excel sheet was applied. The data are expressed as means of duplicate determinations. The kinetic rate constant for the degradation and corrected GSH reactivity were calculated as follows. The reaction half-life for pseudo-first-order reactions (t1/2) is ln 2/k, where k is the reaction rate. In the case of competing reactions (reaction with GSH and degradation), the apparent reaction rate is kapp = kdeg + kGSH. When half-lives are measured experimentally, t1/2(app) = ln 2/(kapp) = ln 2/(kdeg + kGSH). In our case, the corrected kdeg and kapp (regarding blank and GSH-containing samples, respectively) can be calculated by linear regression of the measured kinetic data points. The corrected kGSH is calculated as kapp – kdeg, and finally, the half-life is determined using the equation t1/2 = ln 2/k.
`Clc1cn[nH]c1` [L1] returned a half-life at 250 μM of more than 2880 min.
The same measure, in the same setting: to `Brc1ncc[nH]1` [H2] belongs more than 2880 min.
On the same count and under the same terms, the same measure for `Ic1c[nH]cn1` [J3]: more than 2880 min; for `Brc1cn[nH]c1` [L2]: more than 2880 min.
Same read-out and setting: the same measure for `Brc1cncs1` [Q2]: more than 2880 min.
Consider `Brc1c[nH]cn1` [J2], for which the half-life at 250 μM is more than 2880 min.
In turn, `Clc1ncc[nH]1` [H1] returned a half-life at 250 μM of more than 2880 min.
Consider `Ic1ncc[nH]1` [H3], for which the half-life at 250 μM is 9.6 min.
The compound `Clc1c[nH]cn1` [J1] yielded a half-life at 250 μM of more than 2880 min.
On the same count and under the same terms, the same measure for `Brc1nccs1` [R2]: more than 2880 min; for `Ic1ccn[nH]1` [K3]: more than 2880 min.
The same measure, in the same setting: to `Brc1ccn[nH]1` [K2] belongs more than 2880 min; to `Ic1ncco1` [N3], 13.8 min; to `Ic1cn[nH]c1` [L3], more than 2880 min.

Still in this data set, the particulars now being: buffer, pH 7.4.
The compound `N#Cc1ccccn1` [A4] registered a half-life at 250 μM of more than 2880 min.
On the same count and under the same terms, to `Cn1cc[n+](C)c1C#N` [H4+] belongs more than 2880 min.

These data come from article PMC10788917 (Journal of Medicinal Chemistry, 2023).
